Reference: US11046659B2, “1,2,3-triazole derivative and insecticide and acaricide containing said derivative as active ingredient” (HOKKO CHEMICAL INDUSTRY CO., LTD., priority 2015, dated 2021)

System: Tetranychus urticae
Test: Tetranychus urticae control test
Assay type: in vivo
Details: diluted emulsifiable concentrate 500 ppm sprayed on bean seedlings; female adults; eight days after the treatment; 25° C.
Method: Test Example-4: Tetranychus urticae Control Test
Ten female adults of Tetranychus urticae were released on each of bean seedlings grown in a plastic cup. One day after the release, the bean seedlings were placed on a turntable, and 30 mL of a diluted emulsifiable concentrate (500 ppm) prepared according to Formulation Example 3 was uniformly sprayed thereon by means of a spray gun. After the treatment, the seedlings were placed in a constant temperature chamber at 25° C. (with lighting for 16 hours). Eight days after the treatment, the number of surviving parasitic insects was investigated, and the preventive value (%) was calculated according to the following calculating formula (b). Test was conducted in duplicate. Preventive value (%)={1−(number of parasitic insects on investigation day in treatment plot/number of parasitic insects on investigation day in non-treatment plot)}×100 Formula (b): […]

## CCS(=O)(=O)c1cc(C(F)(F)F)cnc1-n1cc(-c2ccc(C(F)(F)F)cc2)nn1 [1-834]
  preventive value: ≥ 80%
